Measurements as given in PubChem BioAssay AID248 (DTP/NCI, 2004).
Toxic doses and inconclusive results are not listed. Cut-off read from the data, not from the text of the source: active = T/C of 150% or more; inactive = T/C below 125%.

System: L1210 leukemia ip in BDF1 mice, survival T/C
Assay: NCI In Vivo Anticancer Drug Screen. Data for tumor model L1210 Leukemia (intraperitoneal) in B6D2F1 (BDF1) mice
Details: endpoint: mean survival time, higher = longer survival
How it was run: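 Tumor was transplanted into mice, which were then dosed with test compound or vehicle alone. Survival was recorded for each group, and the treated figure was expressed relative to the control figure.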

[1] = dose: 100.0 mg/kg/injection, schedule: Q04DX002 (ip), vehicle: saline with Tween-80
[2] = dose: 200.0 mg/kg/injection, schedule: Q04DX002 (ip), vehicle: saline with Tween-80
[3] = dose: 400.0 mg/kg/injection, schedule: Q04DX002 (ip), vehicle: saline with Tween-80
[4] = dose: 100.0 mg/kg/injection, schedule: Q01DX001 (ip), vehicle: Klucel (hydroxypropylcellulose) (HPC)
[5] = dose: 100.0 mg/kg/injection, schedule: Q04DX003 (ip), vehicle: Klucel (hydroxypropylcellulose) (HPC)
[6] = dose: 200.0 mg/kg/injection, schedule: Q01DX001 (ip), vehicle: Klucel (hydroxypropylcellulose) (HPC)
[7] = dose: 200.0 mg/kg/injection, schedule: Q04DX003 (ip), vehicle: Klucel (hydroxypropylcellulose) (HPC)
[8] = dose: 100.0 mg/kg/injection, schedule: Q04DX002 (ip), vehicle: Klucel (hydroxypropylcellulose) (HPC)
[9] = dose: 200.0 mg/kg/injection, schedule: Q04DX002 (ip), vehicle: Klucel (hydroxypropylcellulose) (HPC)
[10] = dose: 400.0 mg/kg/injection, schedule: Q04DX002 (ip), vehicle: Klucel (hydroxypropylcellulose) (HPC)
[11] = dose: 100.0 mg/kg/injection, schedule: Q01DX001 (ip), vehicle: saline
[12] = dose: 200.0 mg/kg/injection, schedule: Q01DX001 (ip), vehicle: saline
[13] = dose: 400.0 mg/kg/injection, schedule: Q01DX001 (ip), vehicle: saline

Measured: T/C

CC/C(C)=C\CC/C(C)=C\COc1ccccc1C
inactive: [1] 91 % of control | [2] 94 % of control | [3] 89 % of control

Cc1nc(SCc2ccccc2)nc(N)c1CN
inactive: dose: 50.0 mg/kg/injection, schedule: Q04DX003 (ip), vehicle: Klucel (hydroxypropylcellulose) (HPC) 113 % of control | [4] 93 % of control | [5] 100 % of control | [6] 98 % of control | [7] 104 % of control

CS(=O)(=O)NCCOc1ccc(C(=O)O)cc1
inactive: [5] 96 % of control | [7] 101 % of control | dose: 400.0 mg/kg/injection, schedule: Q04DX003 (ip), vehicle: Klucel (hydroxypropylcellulose) (HPC) 95 % of control

Cc1nc(N)[nH]c(=O)c1CCCNc1nc(Cl)nc(Cl)n1
inactive: [8] 91 % of control | [9] 91 % of control | [10] 88 % of control

CCN(CC)S(=O)(=O)CC
inactive: [1] 99 % of control | [2] 96 % of control | [3] 92 % of control

C=CCc1cc(C)ccc1OC(=O)c1cc([N+](=O)[O-])cc([N+](=O)[O-])c1
inactive: [11] 102 % of control | [12] 98 % of control | [13] 98 % of control

Cc1nc2cc(N=Cc3ccc(N(CCCl)CCCl)cc3F)ccc2n1C
inactive: [8] 104 % of control | [9] 101 % of control | [10] 104 % of control

CCCCCCCCCCCCNC(C1=C(O)c2ccccc2C(=O)C1=O)c1ccccc1 (configuration not stated)
inactive: dose: 100.0 mg/kg/injection, schedule: Q01DX001 (ip), vehicle: saline with Tween-80 95 % of control | dose: 200.0 mg/kg/injection, schedule: Q01DX001 (ip), vehicle: saline with Tween-80 88 % of control | dose: 400.0 mg/kg/injection, schedule: Q01DX001 (ip), vehicle: saline with Tween-80 95 % of control

COC1=NS(=O)(=O)C(C)C(C)(C)O1 (configuration not stated)
inactive: [8] 100 % of control | [9] 120 % of control | [10] 100 % of control

CCOC(=O)c1c(C)cn2c1OC(C)CC2(C)C (configuration not stated)
inactive: [4] 105 % of control | [6] 94 % of control | dose: 400.0 mg/kg/injection, schedule: Q01DX001 (ip), vehicle: Klucel (hydroxypropylcellulose) (HPC) 96 % of control

Cc1nc2c(nc1C)C(=O)C=CC2=O
inactive: dose: 5.0 mg/kg/injection, schedule: Q01DX001 (ip), vehicle: carboxymethylcellulose (CMC) 100 % of control | dose: 10.0 mg/kg/injection, schedule: Q01DX001 (ip), vehicle: carboxymethylcellulose (CMC) 96 % of control | dose: 20.0 mg/kg/injection, schedule: Q01DX001 (ip), vehicle: carboxymethylcellulose (CMC) 94 % of control

CCSC(C(OC(C)=O)C(OC(C)=O)C(OC(C)=O)C(COC(C)=O)OC(C)=O)n1cnc2c(=S)nc[nH]c21 (configuration not stated)
inactive: dose: 100.0 mg/kg/injection, schedule: Q04DX003 (ip), vehicle: saline sonified 102 % of control | dose: 200.0 mg/kg/injection, schedule: Q04DX003 (ip), vehicle: saline sonified 96 % of control | dose: 400.0 mg/kg/injection, schedule: Q04DX003 (ip), vehicle: saline sonified 91 % of control

Cc1ccccc1S(=O)(=O)CC(Cl)c1ccccc1 (configuration not stated)
inactive: [11] 102 % of control | dose: 100.0 mg/kg/injection, schedule: Q01DX009 (ip), vehicle: saline 93 % of control | [12] 102 % of control | dose: 200.0 mg/kg/injection, schedule: Q01DX009 (ip), vehicle: saline 91 % of control | [13] 107 % of control | dose: 400.0 mg/kg/injection, schedule: Q01DX009 (ip), vehicle: saline 91 % of control

CCC(=O)OCC1CCCO1 (configuration not stated)
inactive: dose: 100.0 mg/kg/injection, schedule: Q01DX009 (ip), vehicle: Klucel (hydroxypropylcellulose) (HPC) 103 % of control | dose: 200.0 mg/kg/injection, schedule: Q01DX009 (ip), vehicle: Klucel (hydroxypropylcellulose) (HPC) 103 % of control | dose: 400.0 mg/kg/injection, schedule: Q01DX009 (ip), vehicle: Klucel (hydroxypropylcellulose) (HPC) 101 % of control
